Data set [1] relates to Mus musculus. As to the kind of experiment: Toxicity in CD1 mouse assessed as effect on neuromotor tonus up to 80 mg/kg, po measured for 24 hrs by Irwin test. Type of data set: organism-based. The arrangement: dose 80 mg/kg, route oral. To be noted: in vivo.
A short description of data set [2]: Cmax in CD1 mouse at 10 mg/kg, po. Type of data set: ADME, organism-based. Also on record: dose 10 mg/kg, route oral. To be noted: in vivo.
In data set [3] the target is T1, D(3) dopamine receptor (Homo sapiens, UniProt P35462). Nature of the data set: Inhibition of human dopamine D3 receptor at 10 nM relative to control.
For data set [4], the target named is T2, 5-hydroxytryptamine receptor 2B (Homo sapiens, UniProt P41595). As to the kind of experiment: Inhibition of human 5-HT2B receptor.
For data set [5], the target named is T3, 5-hydroxytryptamine receptor 1A (Rattus norvegicus, UniProt P19327).
T3 sequence (P19327 whole entry): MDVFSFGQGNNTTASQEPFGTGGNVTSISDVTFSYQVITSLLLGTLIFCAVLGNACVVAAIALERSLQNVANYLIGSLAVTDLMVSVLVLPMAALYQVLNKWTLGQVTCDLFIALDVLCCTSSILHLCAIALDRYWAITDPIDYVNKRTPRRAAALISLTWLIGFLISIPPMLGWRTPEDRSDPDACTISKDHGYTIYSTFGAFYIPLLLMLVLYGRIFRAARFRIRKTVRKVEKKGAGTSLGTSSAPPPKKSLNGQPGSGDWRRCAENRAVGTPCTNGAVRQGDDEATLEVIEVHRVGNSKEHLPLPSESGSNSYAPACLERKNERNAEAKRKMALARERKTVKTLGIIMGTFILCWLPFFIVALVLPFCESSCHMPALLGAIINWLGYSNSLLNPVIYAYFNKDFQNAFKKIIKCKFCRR
As to the kind of experiment: Displacement of [3H]8-OH-DPAT from 5-HT1A receptor in Wistar rat cerebral hippocampus membrane after 10 mins. Type of data set: tissue-based. To be noted: read-out: Ki(app). (In general: Loss of bound radioactivity is the signal in a displacement assay; it reports binding, not function.)

In another data set the target is T4, D(4) dopamine receptor (Homo sapiens, UniProt P21917).
T4 sequence (P21917 whole entry): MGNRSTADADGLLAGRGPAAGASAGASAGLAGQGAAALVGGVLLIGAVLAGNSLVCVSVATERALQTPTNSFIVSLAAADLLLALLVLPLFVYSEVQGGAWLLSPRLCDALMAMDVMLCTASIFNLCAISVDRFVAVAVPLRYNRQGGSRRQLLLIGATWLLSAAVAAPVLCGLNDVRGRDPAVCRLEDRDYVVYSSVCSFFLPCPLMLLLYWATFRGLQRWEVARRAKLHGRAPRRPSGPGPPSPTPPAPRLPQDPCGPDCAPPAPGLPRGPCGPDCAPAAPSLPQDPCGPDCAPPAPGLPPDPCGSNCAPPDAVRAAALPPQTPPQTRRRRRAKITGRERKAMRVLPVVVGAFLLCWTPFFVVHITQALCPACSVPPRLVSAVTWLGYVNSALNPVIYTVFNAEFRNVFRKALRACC
As to the kind of experiment: Inhibition of dopamine D4 receptor (unknown origin).

Data set [6] has as its system Mus musculus. Nature of the data set: Toxicity in CD1 mouse assessed as effect on central reactivity up to 80 mg/kg, po measured for 24 hrs by Irwin test. Format: organism-based. Also on record: dose 80 mg/kg, route oral. To be noted: in vivo.
Data set [7] is described as follows: Oral bioavailability in CD1 mouse at 10 mg/kg. To be noted: in vivo. Type of data set: ADME, organism-based.
Data set [8] deals with Mus musculus. As to the kind of experiment: Toxicity in CD1 mouse assessed as effect on autonomic system up to 80 mg/kg, po measured for 24 hrs by Irwin test. Format: organism-based. Also on record: dose 80 mg/kg, route oral. To be noted: in vivo.
Data set [9] addresses T5, D(4) dopamine receptor (Homo sapiens) (UniProt P21917).
T5 sequence (whole entry): T4 sequence (P21917 whole entry)
As to the kind of experiment: Inhibition of dopamine D4 receptor (unknown origin) at 10 nM relative to control.

Data set [10] can be described thus: AUC (0 to t) in CD1 mouse at 2 mg/kg, iv. To be noted: plasma. The arrangement: dose 2 mg/kg, route intravenous. Type of data set: ADME, organism-based.
The target of data set [11] is T5, D(4) dopamine receptor (Homo sapiens). Nature of the data set: Inhibition of dopamine D4 receptor (unknown origin) at 100 nM relative to control.
Data set [12] is described as follows: Tmax in CD1 mouse at 10 mg/kg, po. Type of data set: ADME, organism-based. The arrangement: dose 10 mg/kg, route oral. To be noted: in vivo.
Data set [13] in a line: Half life in CD1 mouse at 2 mg/kg, iv. Format: ADME, organism-based. Also on record: dose 2 mg/kg, route intravenous. To be noted: in vivo.
Data set [14] can be described thus: AUCinfinity in CD1 mouse at 10 mg/kg, po. To be noted: plasma. Also on record: time infinity, dose 10 mg/kg, route oral. Type of data set: ADME, organism-based.
Data set [15] concerns the target T1, D(3) dopamine receptor. Nature of the data set: Inhibition of human dopamine D3 receptor at 100 nM relative to control.
For data set [16], the target named is T6, D(2) dopamine receptor (Homo sapiens, UniProt P14416). To be noted: HEK293, 10 nM.
The target in data set [17] is T7, 5-hydroxytryptamine receptor 7 (Homo sapiens, UniProt P34969). Nature of the data set: Inhibition of human 5-HT7 receptor.
A short description of data set [18]: Clearance in CD1 mouse at 2 mg/kg, iv. Type of data set: ADME, organism-based. Also on record: dose 2 mg/kg, route intravenous. To be noted: in vivo.
For data set [19], the target named is T2, 5-hydroxytryptamine receptor 2B. As to the kind of experiment: Inhibition of human 5-HT2B receptor at 10 nM relative to control.
The target of data set [20] is T6, D(2) dopamine receptor. To be noted: HEK293, 100 nM.
Data set [21] can be described thus: Apparent volume of distribution in CD1 mouse at 2 mg/kg, iv. Type of data set: ADME, organism-based. Also on record: dose 2 mg/kg, route intravenous. To be noted: in vivo, read-out: Vz.
The target of data set [22] is T2, 5-hydroxytryptamine receptor 2B. As to the kind of experiment: Inhibition of human 5-HT2B receptor at 100 nM relative to control.
Data set [23] deals with Mus musculus. As to the kind of experiment: Toxicity in CD1 mouse assessed as effect on neurovegetative reflexes up to 80 mg/kg, po measured for 24 hrs by Irwin test. Format: organism-based. To be noted: in vivo. The arrangement: dose 80 mg/kg, route oral.
A short description of data set [24]: AUCinfinity in CD1 mouse at 2 mg/kg, iv. Type of data set: ADME, organism-based. Also on record: time infinity, dose 2 mg/kg, route intravenous. To be noted: plasma.
Data set [25] concerns the target T8, 5-hydroxytryptamine receptor 1A (Homo sapiens) (UniProt P08908).
T8 sequence (whole entry): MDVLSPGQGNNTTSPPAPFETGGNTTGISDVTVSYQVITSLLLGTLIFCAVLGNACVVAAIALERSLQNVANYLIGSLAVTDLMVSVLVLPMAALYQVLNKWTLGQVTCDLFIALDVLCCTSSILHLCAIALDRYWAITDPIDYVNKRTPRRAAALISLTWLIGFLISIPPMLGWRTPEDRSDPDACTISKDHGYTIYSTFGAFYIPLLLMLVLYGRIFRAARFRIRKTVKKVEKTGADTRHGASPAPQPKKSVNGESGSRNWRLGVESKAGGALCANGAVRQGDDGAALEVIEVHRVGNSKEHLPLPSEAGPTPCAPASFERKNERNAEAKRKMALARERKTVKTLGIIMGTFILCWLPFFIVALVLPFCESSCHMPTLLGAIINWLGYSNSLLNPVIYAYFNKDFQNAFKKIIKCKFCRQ
Nature of the data set: Agonist activity at human 5-HT1A receptor transfected in CHO cells assessed as inhibition of forskolin-induced cAMP accumulation at 100 nM relative to control. Format: functional, cell-based. (Changes in cAMP serve as a functional read-out for many G protein-coupled receptors.)

Data set [26] is described as follows: Half life in CD1 mouse at 10 mg/kg, po. Type of data set: ADME, organism-based. The arrangement: dose 10 mg/kg, route oral. To be noted: in vivo.
In data set [27] the target is T6, D(2) dopamine receptor. Nature of the data set: Inhibition of human recombinant dopamine D2S receptor expressed in HEK293 cells. Type of data set: cell-based.
Data set [28] has as its target T8, 5-hydroxytryptamine receptor 1A (Homo sapiens). Nature of the data set: Antagonist activity at human 5-HT1A receptor transfected in CHO cells assessed as reversal of 8-OH-DPAT-induced cAMP reduction. Format: functional, cell-based.
Data set [29] in a line: AUC (0 to t) in CD1 mouse at 10 mg/kg, po. The arrangement: dose 10 mg/kg, route oral. Format: ADME, organism-based. To be noted: plasma.
Data set [30] has as its system Mus musculus. As to the kind of experiment: Toxicity in CD1 mouse assessed as effect on central activity up to 80 mg/kg, po measured for 24 hrs by Irwin test. Type of data set: organism-based. To be noted: in vivo. Also on record: dose 80 mg/kg, route oral.
For data set [31], the target named is T7, 5-hydroxytryptamine receptor 7. Nature of the data set: Inhibition of human 5-HT7 receptor at 10 nM relative to control.
For data set [32] the target is unchanged. Nature of the data set: Inhibition of human 5-HT7 receptor at 100 nM relative to control.
In data set [33] the target is T1, D(3) dopamine receptor. As to the kind of experiment: Inhibition of human dopamine D3 receptor.
The target in data set [34] is T2, 5-hydroxytryptamine receptor 2B. As to the kind of experiment: Binding affinity to human 5-HT2B receptor by radioligand displacement assay.

pIC50, pKi: −log10 of the molar value. Activity calls are given as the source filed them. The calls are words filed in the database; no cut-off is given here. Bounds are passed on as bounds.

T2 sequence (P41595 whole entry): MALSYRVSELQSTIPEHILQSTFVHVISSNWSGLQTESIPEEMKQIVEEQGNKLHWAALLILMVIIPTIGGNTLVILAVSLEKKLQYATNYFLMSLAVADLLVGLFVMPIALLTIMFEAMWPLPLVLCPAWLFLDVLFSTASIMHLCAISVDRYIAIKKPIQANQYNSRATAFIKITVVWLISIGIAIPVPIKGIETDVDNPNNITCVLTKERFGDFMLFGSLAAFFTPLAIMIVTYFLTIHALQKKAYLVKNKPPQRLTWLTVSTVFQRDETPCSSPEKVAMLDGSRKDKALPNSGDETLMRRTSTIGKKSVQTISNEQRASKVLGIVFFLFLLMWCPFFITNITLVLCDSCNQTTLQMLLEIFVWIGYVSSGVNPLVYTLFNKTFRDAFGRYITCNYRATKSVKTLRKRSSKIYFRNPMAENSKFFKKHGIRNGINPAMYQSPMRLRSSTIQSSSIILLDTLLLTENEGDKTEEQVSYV
T7 sequence (P34969 whole entry): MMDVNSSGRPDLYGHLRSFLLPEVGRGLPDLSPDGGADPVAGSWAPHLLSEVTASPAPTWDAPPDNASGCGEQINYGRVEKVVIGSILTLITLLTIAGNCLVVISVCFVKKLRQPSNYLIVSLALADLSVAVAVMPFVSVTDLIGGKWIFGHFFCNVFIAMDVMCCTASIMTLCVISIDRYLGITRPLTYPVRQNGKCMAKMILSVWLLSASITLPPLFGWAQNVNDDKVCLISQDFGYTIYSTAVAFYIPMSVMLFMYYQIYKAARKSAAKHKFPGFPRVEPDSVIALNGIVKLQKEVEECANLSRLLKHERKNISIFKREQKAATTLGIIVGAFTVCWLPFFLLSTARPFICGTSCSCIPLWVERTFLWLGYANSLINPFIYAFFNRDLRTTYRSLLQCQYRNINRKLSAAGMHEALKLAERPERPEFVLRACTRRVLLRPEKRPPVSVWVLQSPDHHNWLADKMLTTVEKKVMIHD
T6 sequence (P14416 whole entry): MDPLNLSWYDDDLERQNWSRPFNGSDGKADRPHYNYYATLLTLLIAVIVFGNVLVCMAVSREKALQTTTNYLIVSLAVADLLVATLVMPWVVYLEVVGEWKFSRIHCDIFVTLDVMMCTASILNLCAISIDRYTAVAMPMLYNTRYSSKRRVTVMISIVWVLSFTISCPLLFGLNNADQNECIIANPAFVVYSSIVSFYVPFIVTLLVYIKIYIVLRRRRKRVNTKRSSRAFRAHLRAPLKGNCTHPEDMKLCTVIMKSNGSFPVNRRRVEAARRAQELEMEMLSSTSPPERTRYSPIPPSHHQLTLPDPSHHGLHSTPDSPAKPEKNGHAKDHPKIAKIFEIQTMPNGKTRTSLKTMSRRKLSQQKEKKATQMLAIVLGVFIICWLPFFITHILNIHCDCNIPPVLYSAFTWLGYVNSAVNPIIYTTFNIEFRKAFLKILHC
T1 sequence (P35462 whole entry): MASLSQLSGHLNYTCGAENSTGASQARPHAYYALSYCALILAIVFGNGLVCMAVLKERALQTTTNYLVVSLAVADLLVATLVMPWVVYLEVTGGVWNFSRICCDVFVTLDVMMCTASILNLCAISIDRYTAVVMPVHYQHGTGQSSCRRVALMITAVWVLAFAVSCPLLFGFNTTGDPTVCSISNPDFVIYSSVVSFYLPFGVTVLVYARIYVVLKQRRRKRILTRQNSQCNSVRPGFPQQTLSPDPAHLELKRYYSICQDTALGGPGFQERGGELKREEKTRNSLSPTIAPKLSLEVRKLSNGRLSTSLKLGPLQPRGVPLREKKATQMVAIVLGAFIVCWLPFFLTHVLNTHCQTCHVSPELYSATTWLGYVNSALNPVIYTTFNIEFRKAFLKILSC

One may read the Cmax as the peak of the concentration-time curve. As usually defined, the inhibition is the drop in the measured response relative to a control, in per cent. Usually pIC50 stands for the IC50 on a negative log10 scale, so that one unit is a factor of ten. Broadly, the pKi is the Ki on a negative log10 scale, so that one unit is a factor of ten. As usually defined, the bioavailability is the share of a dose that reaches the circulation, judged against a reference dose that is usually intravenous. Read a low bioavailability as poor availability. Broadly, the AUC(0-t) is exposure summed from dosing to a finite time, without extrapolation to infinity. The Tmax is the time from dosing to the highest level. Broadly, the half-life is the time in which the quantity being followed falls by half. Lower therefore signals rapid decline. Broadly, the AUC(0-inf) is total exposure, with the tail of the curve extrapolated. For orientation: clearance means the volume of plasma or blood freed of the substance per unit of time. Higher therefore signals a high capacity for elimination. For `COc1ccccc1N1CCN(CCCCCN2Cc3ccc4ccccc4c3C2=O)CC1`, the Activity entry in the data set with Mus musculus [1], in the data set with Mus musculus [6], in the data set on Mus musculus [8], with Mus musculus [23] and with Mus musculus [30] was “Non-toxic” each time. This compound also yielded a Cmax in data set [2] of 56 ng/mL. Also, the inhibition was 39% on D(3) dopamine receptor [3]; 13% in data set [9]; 60% in data set [11]; 86% at D(3) dopamine receptor [15]; 74% on D(2) dopamine receptor [16]; 28% in data set [19]. In addition, the inhibition at D(2) dopamine receptor [20] turned out to be 90%; in data set [22], 70%; in [25] it was 63%; in data set [31], 18%; in data set [32], 65%. Moreover, the pIC50 was 7.37 in data set [4]; 7.19 against D(4) dopamine receptor; 7.21 in data set [17]; 8.46 at D(2) dopamine receptor [27]; 7.62 at D(3) dopamine receptor [33]. Also, the pKi in [5] was 8.80. This compound also registered a bioavailability in [7] of 20%. For the same compound, the AUC(0-t) came to 207 ng·h/mL in data set [10] and 212 ng·h/mL in data set [29]. Also, the Tmax in [12] stood at 0.3 h. The half-life in data set [13] is 1.3 h; in [26], 4.7 h. In addition, the AUC(0-inf) was determined as 325 ng·h/mL in data set [14] and 210 ng·h/mL in [24]. For the same compound, in data set [18], the clearance was 159 mL/min/kg. Further, the Vd in [21] was found to be 17.6 L/kg. The result in [28] was inactive.
`COc1ccccc1N1CCN(CCCCCN2Cc3c(Cl)nc4ccccc4c3C2=O)CC1`: the Activity entry in the data set on Mus musculus [1], in the data set with Mus musculus [6], with Mus musculus [8], in the data set with Mus musculus [23] and in the data set with Mus musculus [30] was “Non-toxic” in each case. The compound further registered a Cmax in data set [2] of 35 ng/mL. Further, the inhibition at D(3) dopamine receptor [3] amounted to 38%; in data set [9], 10%; in data set [11], 28%; at D(3) dopamine receptor [15], 74%; in data set [19], 18%; against D(2) dopamine receptor [20], 26%. Also, the inhibition came out at 65% in [22], 60% in data set [25], 24% in data set [31] and 42% in data set [32]. Further, the pIC50 is 7.20 in data set [4]; < 7.00 against D(4) dopamine receptor; < 7.00 in [17]; < 7.00 at D(2) dopamine receptor [27]; 7.51 on D(3) dopamine receptor [33]. In addition, the pKi in data set [5] is 8.77. Further, the bioavailability in data set [7] was 45%. Further, the area under the curve AUC(0-t) in data set [10] was determined as 70 ng·h/mL; in data set [29], 157 ng·h/mL. The Tmax in [12] was 1 h. The half-life in [13] is 1.5 h; in [26] it was 4.5 h. For the same compound, the AUC(0-inf) in data set [14] is 239 ng·h/mL; in [24] it was 76 ng·h/mL. In [18], this compound showed a clearance of 440 mL/min/kg. Besides, the Vd in data set [21] is 58.7 L/kg. Moreover, the result in data set [28] was inactive.
In data set [34], `COc1cc(CC(C)N)c(OC)cc1I` (racemic) gave a pIC50 of 8.40.
